# Like-named read-outs stand apart in the source and are kept apart here.
# What was measured:
# [1] = test system: TNF-α; experiment: Serum TNF-α (ELISA) in LPS/D-galactosamine model of sepsis (Example 5); format: in vivo, mice; settings: 90 minutes after the treatment
# Method: (§1) Mice were treated simultaneously with LPS (10 μg/kg) and D-galactosamine (600 mg/kg) (Galanos C, Freudenberg M A, Reutter W. […] They were anesthetized with halothane and blood was collected at different times by cardiac puncture and centrifuged to separate serum. The serum levels of alanine transaminase (ALT) and aspartate transaminase (AST) were measured by a commercial diagnostic company (Idexx Laboratories). The serum levels of tumor necrosis factor-alpha (TNF-α), interleukin-6 (IL-6) and interleukin-12 (IL-12) were determined by commercially available mouse enzyme-linked immunosorbent assay (ELISA) kits (BD BioSciences, San Jose, Calif.).
# (§2) The methodology utilized in Example 4 was used to measure and analyze the serum enzyme data for statistical significance. The serum levels of proinflammatory cytokines between the 5-EPP treated and saline control groups were analyzed for statistical significance by one-way ANOVA and a Tukey's multiple comparison test (Prism™ for Windows 4.02, Graphpad Software, Inc. San Diego, Calif.).
# [2] = test system: IL-12; experiment: Serum IL-12 (ELISA) in LPS/D-galactosamine model of sepsis (Example 5); format: in vivo, mice; settings: 90 minutes after the treatment
# Method: as §1, §2
# [3] = test system: LPS-induced septic shock; experiment: Lethal shock caused by LPS alone, survival of mice (Example 3); format: in vivo; settings: LPS alone (30 mg/kg), 100 mg/kg i.p., monitored for 4 days
# Method: The survival of mice subjected to treatment of the agent and LPS alone pursuant to the methodology of Galanos C, Freudenberg M A, Reutter W. Proc Natl Acad Sci USA. 1979 November; 76 (11)5939-43) was observed. This procedure is believed to evoke a pathophysiological response which is more like that observed during septic shock than that caused by the LPS and galactosamine.
# All agents were injected simultaneously via the intraperitoneal route and the response compared to a placebo agent (saline).
# The animals were monitored for 4 days after treatment and the resulting data analyzed by the same Fisher exact test and criteria as before.
# [4] = test system: LPS/D-galactosamine model of sepsis; experiment: Serum alanine and aspartate transaminase in LPS/D-galactosamine model of sepsis (Example 5); format: in vivo, mice; settings: 200 mg/kg ip with LPS (10 μg/kg)/D-galactosamine (600 mg/kg)
# Method: Mice were treated simultaneously with LPS (10 μg/kg) and D-galactosamine (600 mg/kg) (Galanos C, Freudenberg M A, Reutter W. Proc Natl Acad Sci USA. 1979, 76 (11):5939-43) and 5-EPP (200 mg/kg) by intraperitoneal route in a separate set of experiments. They were anesthetized with halothane and blood was collected at different times by cardiac puncture and centrifuged to separate serum. The serum levels of alanine transaminase (ALT) and aspartate transaminase (AST) were measured by a commercial diagnostic company (Idexx Laboratories). The serum levels of tumor necrosis factor-alpha (TNF-α), interleukin-6 (IL-6) and interleukin-12 (IL-12) were determined by commercially available mouse enzyme-linked immunosorbent assay (ELISA) kits (BD BioSciences, San Jose, Calif.).
# as §2
# [5] = test system: LPS/D-galactosamine-induced mortality; experiment: LPS/D-galactosamine-induced mortality in mice, survival curve (Example 7, FIG. 2); format: in vivo; settings: LPS 20 μg/kg + D-galactosamine 600 mg/kg, monitored 4 days
# Method: The effects of treatment with 5-EPP on LPS/D-galactosamine-induced mortality was investigated in mice. At least 10 mice in each group were challenged with either a lethal dose of LPS (20 μg/kg) and D-galactosamine (600 mg/kg) or the same dose of LPS/D-galactosamine+different doses of 5-EPP by intraperitoneal route and the morality in each group was monitored at different times for 4 days in order to evaluate the protective effects of 5-EPP against LPS/D-galactosamine-induced mortality.
# However, the survival of mice treated with 25 mg/kg of 5-EPP was 45% and 100% at 50 mg/kg, 100 mg/kg and 200 mg/kg with p≦0.0001 as determined by Chi square test.
# [6] = Solubility in water and isotonic saline (Example 9); format: physicochemical; settings: for solubility: thermodynamic from solid, room temperature, colorless, clear solution, read-out: solubility (soluble at)
# Method: All solutions were prepared by weighing the chemical, transferring his solid into a polypropylene tube or polystyrene tube and then adding either water or saline to the final desired volume. The compound was dissolved by intermittent mixing with a vortex mixer, gentle heating in a warm water bath (40-45° C.) and sonication (3×15 min.).
# [7] = test system: LPS/D-galactosamine-septic shock; experiment: Lethal LPS/D-galactosamine septic shock in rats (Example 2); format: in vivo, Juvenile Sprague-Dawley rats; settings: monitored for 66 hours
# Method: The methodology utilized in Example 1 was used to treat rats. Juvenile Sprague-Dawley rats were induced with LPS/D-galactosamine-septic shock. The animals were monitored for 66 hours after treatment and the resulting data analyzed by the same statistical tests and criteria as in Example 1.
# [8] = test system: Male Swiss-Webster mice; experiment: LD50 estimate after a single intraperitoneal dose (Example 8); format: in vivo
# Method: (§3) Male Swiss-Webster mice were obtained from standard commercial sources at 7 weeks of age, housed in the laboratory for at least 1 week prior to use and were provided standard mouse chow and water ad libitum. Animals were subjected to a 12 hour/12 hour light-dark cycle.
# (§4) Six groups of mice were injected via the intraperitoneal route with 5-EPP (250-500 mg/kg) dissolved in sterile isotonic saline, immediately replaced in their cages and then observed carefully for the next 6-8 hours. A LD50 value was estimated from the mortality data by a non-linear curve fitting program (Prism™ for Windows 4.02).
# [9] = as above; format: in vivo; settings: male, Swiss-Webster, mouse, in vivo, ip; mice; single intraperitoneal dose; sigmoidal curve fit, R^2=0.949
# Method: as §3, §4
structure (smiles),measurement,setting,value
"CCc1ccc(=O)n(-c2ccccc2)c1 [5-EPP, 5-ethyl-1-phenyl-2-(1H)-pyridone]",serum level of TNF-α,[1]; 12.5 mg/kg,"5,220 ± 1280 pg/mL"
same,serum level of TNF-α,[1]; 25 mg/kg,"2,780 ± 481 pg/mL"
same,serum level of TNF-α,[1]; 50 mg/kg,576 ± 79 pg/mL
same,serum level of TNF-α,[1]; 100 mg/kg,340 ± 34 pg/mL
same,serum level of IL-12,[2]; 50 mg/kg,"2,809 ± 325 pg/mL"
same,serum level of IL-12,[2]; 100 mg/kg,"1,371 ± 124 pg/mL"
same,serum level of IL-12,[2]; 200 mg/kg,870 ± 99 pg/mL
same,mortality,[3],30% mortality
same,serum level of alanine transaminase,[4]; After 3 Hours,109.4 ± 6.1 U/L
same,serum level of aspartate transaminase,[4]; After 3 Hours,131.3 ± 11.9 U/L
same,serum level of alanine transaminase,[4]; After 6 Hours,130.0 ± 8.9 U/L
same,serum level of aspartate transaminase,[4]; After 6 Hours,152.38 ± 14.4 U/L
same,serum level of alanine transaminase,[4]; After 12 Hours,109.5 ± 8.3 U/L
same,serum level of aspartate transaminase,[4]; After 12 Hours,173.38 ± 13.0 U/L
same,survival,[5]; 25 mg/kg ip,45%
same,survival,[5]; 50 mg/kg ip,100%
same,survival,[5]; 100 mg/kg ip,100%
same,survival,[5]; 200 mg/kg ip,100%
same,Results (solubility),"[6]; DI Water, final 5-EPP 20.0 mg/mL",soluble
same,Results (solubility),"[6]; Isotonic saline, final 5-EPP 20.0 mg/mL",soluble
same,Results (solubility),"[6]; Isotonic saline, final 5-EPP 20.1 mg/mL",soluble
same,solubility,"[6]; saline or isotonic, saline",20 mg/mL
same,precipitation of dissolved compound,[6]; standing at room temperature overnight or following refrigeration,no precipitation was observed
same,solubility,[6]; water,20 mg/mL
same,concentrations that do not completely dissolve,[6]; water or saline,≥ 30000 µg/mL
same,mortality,[7]; 75 mg/kg,14.3% mortality
same,mortality,[7]; 200 mg/kg,12.5% mortality
same,"time to ataxia, loss of the righting reflex and labored breathing",[8]; highest doses (450-500 mg/kg) ip,≤ 5 min
same,"absorption and distribution, suggested by rapid onset of symptoms",[8]; intraperitoneal route,rapidly absorbed and distributed across the blood-brain barrier
same,time over which symptoms gradually lessened until animals appeared unaffected,[8]; lower doses ip,1 to 2 h
same,LD100,"[8]; single intraperitoneal dose, raw mortality data",450 to 500 mg/kg
same,LD50,[9],380 mg/kg
